Measurements as given in PMC9295539 (Antimicrobial Agents and Chemotherapy, 2022).
“Also recorded” adds a separate entry of the source. Like-named read-outs stand apart in the source and are kept apart here.

Columns and labels:
[1] = Clinical evaluation of overall health of mice in PK and efficacy studies; conditions: all mice used for in vivo PK and efficacy studies
[2] = tested on: G. lamblia CBG99; conditions: mice
Procedure: The method relies on a stable constitutive reporter, CBG99, that correlates with total parasite load.
In vitro reconfirmation and expanded tests against EGFR-TKIs using the G. lamblia CBG99 strain were performed as previously described ([11]). […] The PK studies were performed in groups of 3 mice per compound. […] All animal experiments were approved by the Institutional Animal Care and Use Committees at the University of Washington.

[3] = HEK293T cytotoxicity counterscreen, luminescent ATP viability assay; conditions: human, HEK293T cells
Procedure: (§1) Compounds were screened at 5 μM with metronidazole (40 μM) as an inhibitor control and dimethyl sulfoxide (DMSO) as a neutral control. […] These primary hits were immediately assayed for reconfirmation and mammalian cytotoxicity against HEK293T cells in an 8-point dose-response format.
(§2) Experimental details for the assays were described previously ([50]). […] Assays were performed as previously reported ([51]).
(§3) Relative luminescence unit (RLU) values were analyzed in Genedata Screener (v13.0-Standard). RLU values were normalized to neutral controls minus inhibitors (DMSO-treated wells minus metronidazole-treated wells). For single-point primary assay plates, an additional run-wise median correction was applied to reduce screen artifacts, whereas no corrections were applied to triplicate dose-response plates. For the mammalian cytotoxicity assays, RLU values were uploaded into Genedata Screener, and the data were normalized to those for DMSO-treated wells minus puromycin-treated wells.

[4] = CRL-8155 cytotoxicity, resazurin-based viability assay; format: cell-based; conditions: human, CRL-8155 lymphocytic cells; read-out: CC50 against CRL-8155 cells
Procedure: as §2

[5] = tested on: Giardia lamblia GS clone H7; experiment: G. lamblia GS clone H7 trophozoite growth, ATP-based bioluminescence assay (BacTiter-Glo), 1,536-well; format: cell-based; conditions: Giardia duodenalis
Procedure: as §1
The primary screen was conducted at 5 μM. […] All source plates were 384-well acoustic, transfer-compatible plates with compounds prediluted in DMSO at either 2 mM or 10 mM. […] Primary screening was done with a single replicate, whereas dose-response testing was carried out in triplicate.
To prevent attachment to the bottle and tubing of the dispenser cassette, the bottle containing the culture was kept on ice throughout the dispensing process. […] The bags were heat sealed and the anaerobic generator was activated according to the manufacturer’s instructions. […] Luminescence was read on a ViewLux uHTS microplate imager (PerkinElmer) with medium-sensitivity luminescence at 30 s of exposure.
as §3

[6] = HepG2 cytotoxicity, resazurin-based viability assay; format: cell-based; conditions: human, HepG2 cells; read-out: CC50 against HepG2 cells
Procedure: as §2

[7] = Allometric scaling of efficacious mouse doses to human-equivalent dose; conditions: 150 mg human dose (2.6 to 1.9 mg/kg) versus predicted human efficacious dose
Procedure: Its chemical synthesis and safety profiles and a partial analysis of its pharmacokinetic properties have been described previously ([18], [43]). […] Given that the average adult weight worldwide ranges from 57.7 kg in Asia to 80.7 kg in North America ([46]), a 150 mg dose equates to 2.6 to 1.9 mg/kg. […]. This leaves a possible safety window of 4.6 to 13 times the efficacious dose, depending on the dose needed and the weight of the adult patient. Since the equivalent human efficacious dose (based on the murine efficacy data) is below the clinical trial threshold and the drug may not necessitate more than 7 daily doses, it could be speculated that all previously obtained good laboratory practices (GLP) toxicological data associated with the Phase I clinical trials remain relevant and may not need to be repeated. […] Reduced cost of development should have a direct impact on the cost of goods for the target population. This is certainly true for G. lamblia.

[8] = Mouse pharmacokinetics, oral gavage, plasma LC-MS/MS; format: in vivo; conditions: for half-life: read-out: average half-life (t1/2); for plasma level: 1 mg/kg QD
[9] = set-up: method as in doi:10.1016/j.jtho.2016.11.1668; conditions: adults; >150 mg daily oral doses over 7 days; cited from earlier work
[10] = tested on: G. lamblia WB6 (assemblage A); experiment: G. lamblia WB6 cell growth inhibition assay; format: cell-based; conditions: Giardia duodenalis; assemblage A; read-out: EC50 against G. lamblia strain WB6
[11] = tested on: metronidazole-resistant 713-M3 strain; experiment: Metronidazole-resistant G. lamblia 713-M3 cell growth inhibition assay; format: cell-based; conditions: Giardia duodenalis, read-out: EC50 against G. lamblia strain 713-M3
[12] = mouse, single oral dose 5 mg/kg
[13] = mouse, single oral dose 20 mg/kg
[14] = mouse, single oral dose 50 mg/kg

**Q.** Which results are given for `C=CC(=O)N[C@@H]1CN(c2nc(Nc3cn(C)nc3OC)c3ncn(C)c3n2)C[C@H]1F` [Mavelertinib, N-((3R,4R)-4-fluoro-1–(6-((3-methoxy-1-methyl-1H-pyrazol-4-yl)amino)-9-methyl-9H-purin-2-yl)pyrrolidine-3-yl)acrylamide]?
**A.** observable toxicity [1]: no observable mavelertinib-induced toxicology potentials; clearance of infection (luminescence signal) ([2]; 2.5 mg/kg QD for 2 days): one of four mice remained infected; clearance of infection (luminescence signal) ([2]; 5 mg/kg QD for 2 days, 5 mg/kg): cleared the infection below the background signal; clearance of infection (luminescence signal) ([2]; 5 mg/kg QD for 2 days, listed as mavelertinib, 5 mg/kg): absence of luminescence signal; clearance of infection (luminescence signal) ([2]; 20 mg/kg QD for 2 days, 20 mg/kg): cleared the infection below the background signal; clearance of infection (luminescence signal) ([2]; 20 mg/kg QD for 2 days, listed as mavelertinib, 20 mg/kg): absence of luminescence signal; clearance of infection (luminescence signal) ([2]; 50 mg/kg QD for 1 day, dose-response experiment, 50 mg/kg): cleared the infection below the background signal; clearance of infection (luminescence signal) ([2]; 50 mg/kg QD for 1 day, dose-response experiment, listed as mavelertinib, 50 mg/kg): absence of luminescence signal; clearance of infection ([2]; 50 mg/kg QD for 3 days, data not shown): appeared to clear the infection; clearance of infection ([2]; 50 mg/kg QD, 1- and 2-day dosing, remained clear a week after dosing): all treated mice were cleared of infection; parasite rebound after treatment ([2]; about 1 week after the last therapeutic dose): parasites did not rebound; CC50 at 72 h [3]: > 25000 nM; CC50 [4]: > 80000 nM; EC50 ([5]; 48 h, 8-point dose response, triplicate, read-out: 48-h Giardia GS clone H7 EC50): 2340 ± 80 nM; EC50 ([5]; Table 2, assemblage B, read-out: EC50 against G. lamblia strain GS clone 7): 2340 ± 80 nM; CC50 [6]: > 80000 nM; possible safety window [7]: 4.6 to 13 times the efficacious dose; half-life ([8]; in vivo, mouse, single oral dose 5 mg/kg): 3.99 h; plasma trough levels ([8]; infected mice, all treatment groups, days 6 and 7 postinfection (24 h and 48 h after the first dose)): below the limit of quantitation; plasma level ([8]; mouse, 0.5 h postdose, one mouse): barely detectable; plasma level ([8]; mouse, all time points after 0.5 h): below the limit of detection; plasma level ([8]; mouse, all time points sampled (Fig. 4 legend)): barely detectable; time at which Cmax was observed (Tmax) ([8]; mouse, oral, in all cases (all doses)): 0.5 h; plasma concentration at 24 h postdose ([8]; mouse, single dose, all dosage groups): cleared from plasma; also recorded: below the detection limit; area under the curve (AUC) [8, 12]: 89 µmol·min/L; clearance [8, 12]: 0.015 L/min; area under the curve (AUC) [8, 13]: 300 µmol·min/L; clearance [8, 13]: 0.004 L/min; area under the curve (AUC) [8, 14]: 812 µmol·min/L; clearance [8, 14]: 0.0016 L/min; Cmax ([8]; plasma, mouse, single oral dose 5 mg/kg, read-out: maximum plasma concentration (Cmax)): 0.63 µM; half-life ([8]; plasma, mouse, single oral dose 20 mg/kg): 2.91 h; Cmax ([8]; plasma, mouse, single oral dose 20 mg/kg, read-out: maximum plasma concentration (Cmax)): 3.5 µM; half-life ([8]; plasma, mouse, single oral dose 50 mg/kg): 2.09 h; Cmax ([8]; plasma, mouse, single oral dose 50 mg/kg, read-out: average maximum plasma concentration (Cmax)): 9.3 µM; most common adverse events [9]: diarrhea and skin toxicities; EC50 [10]: 270 ± 170 nM; EC50 [11]: 70 ± 20 nM
